# What was measured:
# [1] = test system: primary CD4+ T-cells from HIV-1-infected patients; test: HIV-1 reactivation in primary CD4+ T-cells from HIV-1 patients (HIV-1 mRNA); format: cell-based; conditions: primary CD4+ T-cells from HIV-1-infected patients under cART, 24 h; PEP005 5 nM, birinapant 50 nM
# From the text: Peripheral blood samples were collected from HIV-1-infected patients who had been receiving combination antiretroviral therapy (cART) for at least 6 years. All subjects maintained lower viral load (<20 copies/ml) (except for occasional blips) during therapy. CD4^+ T-cell counts in peripheral blood samples ranged from 464–807 cells/mm^3 (average 601 cells/mm^3), and plasma viral loads were <41.3 copies/ml as measured by qPCR (Roche COBAS AmpliPrep/COBAS TaqMan HIV-1 Test version 2.0) at the time of study enrollment. Written informed consent was obtained from all the subjects. […] The total RNA was extracted, cDNA was synthesized, and quantitative real-time PCR analyses for studying the expression of intracellular HIV-1 RNA were carried out as shown above. The HIV RNA copies were calculated using a standard curve obtained from serially diluted HIV-1 plasmid, the normalized values [HIV RNA copies/input RNA (ng)] with a drug were compared with that without a drug, and the relative increase in HIV-1 RNA levels in the presence of a drug was determined.
# FIGURE 5 (A) Changes in the HIV-1 mRNA expression on primary CD4^+ T-cells from HIV-1-infected patients in the presence of PEP005 and/or birinapant. […] Statistical significance was determined using Mann-Whitney U test, where P-value < 0.05 was considered to be significant.
# [2] = test system: PBMCs from a cART-treated HIV-1 patient; test: Cytotoxicity in PBMCs from HIV-1-infected patient (PI staining, flow cytometry); format: cell-based, human; conditions: PBMCs of cART-treated HIV-1 patient, 24 h; birinapant 50 nM, PEP005 5 nM
# Description: Supplementary file Data_Sheet_3.PDF: FIGURE S3 The combined effect of birinapant (50 nM) and PEP005 (5 nM) on cytotoxicity in PBMCs obtained from HIV-1-infected patients. PBMCs from a cART-treated HIV-1 patient were cultured for 24 h in the presence or absence of drug(s), and the percentage of propidium iodide (PI)^+ cells were measured by flow cytometric analysis. Click here for additional data file.
# [3] = test system: latent HIV-1-infected U1 cells; test: HIV reactivation from latent cells: supernatant p24 antigen; format: cell-based; conditions: day 2, single drug (Figure 1B)
# Description: The reactivation of HIV-1 from latently infected cells was determined by the measurement of supernatant p24 antigen and intracellular HIV-1 RNA levels. ACH-2 cells or U1 cells (5 × 10^5 cells/mL) were placed in 96-well plates, and then the cells were incubated with different concentrations of drugs for 24 h to extract RNA and for 48 h to collect the supernatant. The increase in supernatant p24 antigen levels was measured using […] G1200 (Fujirebio, Tokyo, Japan). The total RNA was extracted using an RNeasy Mini Kit (Qiagen, Hilden, Germany), following the manufacturer’s protocols. The cDNA was synthesized using PrimeScript RT Master Mix (Takara Bio, Shiga, Japan), and quantitative real-time PCR analyses for the intracellular HIV-1 RNA were carried out with PowerUp^TM SYBR Green Master Mix (Applied Biosystems, Foster City, CA, United States). The oligonucleotide primers used were as follows: 5′-[…]-3′ (forward) and 5′-[…]-3′ (reverse) for HIV-RNA detection; 5′-[…]-3′ (forward) and 5′-[…]-3′ (reverse) for β-actin. The HIV-RNA expressions were normalized with that of β-actin, which was indicated as the relative quantity, and the increase in HIV-1 RNA levels in the presence of a drug was compared with that without a drug.
# FIGURE 1 (A,B) The increase in viral production from ACH-2 cells (A) and U1 cells (B) was examined by supernatant p24 antigen levels on day 2. (C,D) Changes in the intracellular HIV-1 mRNA levels due to treatment with these drugs in ACH-2 cells (C) and U1 cells (D) after 24 h of incubation.
Structure (SMILES),HIV-1 mRNA expression [1],ratio of dead cells (PI staining) [2],viral production (supernatant p24 antigen levels) [3]
CC[C@H](NC(=O)[C@H](C)NC)C(=O)N1C[C@@H](O)C[C@H]1Cc1c(-c2[nH]c3cc(F)ccc3c2C[C@@H]2C[C@H](O)CN2C(=O)[C@H](CC)NC(=O)[C@H](C)NC)[nH]c2cc(F)ccc12 [Birinapant],failed to change the HIV-1 mRNA expression in most samples,slightly increased the ratio of dead cells,only had a minor effect on HIV-1 reactivation
"C/C=C(/C)C(=O)O[C@H]1C(C)=C[C@]23C(=O)[C@@H](C=C(CO)[C@@H](O)[C@]12O)[C@H]1[C@@H](C[C@H]3C)C1(C)C [PEP005, ingenol-3-angelate]",elevated the expression of HIV-1 mRNA,failed to increase the number of dead cells,increased viral production

# From article PMC6156138, “Combination of a Latency-Reversing Agent With a Smac Mimetic Minimizes Secondary HIV-1 Infection in vitro” (Frontiers in Microbiology, 2018)
